Data taken from publication PMC10977697 (PLOS ONE, 2024).
Where no end group is shown, it is not given here.

System: EpCAM
Assay: Spot phage ELISA, EpCAM
Assay type: binding, human
Settings: spot phage ELISA signal-to-noise on EpCAM

Going from “GPTQSHYGQCGGKGYPGYIVCSGTTCQMVNQSHSQCLPGAS (disulfide (positions not given here)) [EpCAM CBD 55]” to “GPTQSHYGQCGGKGYQGAMKCSGTTCQYIFFPTSQCLPGAS (disulfide (positions not given here)) [EpCAM CBD 64]”, the S/N falls from 9.4 to 8.6.

Going from “GPTQSHYGQCGGKGYRGAIRCSGTTCQYIREFTSQCLPGAS (disulfide (positions not given here)) [EpCAM CBD 43]” to “GPTQSHYGQCGGLGYAGAIVCSGTTCQYTIRNPSQCLPGAS (disulfide (positions not given here)) [EpCAM CBD 65]”, the S/N falls from 11.4 to 8.6.

First: GPTQSHYGQCGGLGYHGAIMCSGTTCQYAPIVTSQCLPGAS (disulfide (positions not given here)) [EpCAM CBD 52]
Second: GPTQSHYGQCGGLGYLGMMQCSGTTCQYIQREISQCLPGAS (disulfide (positions not given here)) [EpCAM CBD 29]
The S/N of the first is lower: 9.8 for the first, 15.7 for the second.

Compared with “GPTQSHYGQCGGLGYQGGMMCSGTTCQYVPIWRSQCLPGAS (disulfide (positions not given here)) [EpCAM CBD 17]”, “GPTQSHYGQCGGLGYTGAIVCSGTTCQWKQLMRSQCLPGAS (disulfide (positions not given here)) [EpCAM CBD 24]” is lower in S/N: 18.6 for the first, 16.9 for the second.

Going from “GPTQSHYGQCGGLGYVGAMQCSGTTCQYVVRNFSQCLPGAS (disulfide (positions not given here)) [EpCAM CBD 28]” to “GPTQSHYGQCGGMGYHGAISCSGTTCQPIIFPVSQCLPGAS (disulfide (positions not given here)) [EpCAM CBD 19]”, the S/N rises from 16.2 to 17.9.

Compared with “GPTQSHYGQCGGMGYHGFIVCSGTTCQHMMPTTSQCLPGAS (disulfide (positions not given here)) [EpCAM CBD 12]”, “GPTQSHYGQCGGMGYKGIMCSGTTCQHAYIFRSQCLPGAS (disulfide (positions not given here)) [EpCAM CBD 49]” is lower in S/N: 19.8 for the first, 10.2 for the second.

First: GPTQSHYGQCGGMGYQGMIKCSGTTCQYVARQASQCLPGAS (disulfide (positions not given here)) [EpCAM CBD 47]
Second: GPTQSHYGQCGGNGYMGVISCSGTTCQEIQMQRSQCLPGAS (disulfide (positions not given here)) [EpCAM CBD 90]
The S/N of the first is higher: 10.5 for the first, 4.8 for the second.

Going from “GPTQSHYGQCGGPGYFGXVVCSGTTCQFAHIHRSQCLPGAS (disulfide) [EpCAM CBD 85]” to “GPTQSHYGQCGGPGYLGVIVCSGTTCQYQLRPTSQCLPGAS (disulfide (positions not given here)) [EpCAM CBD 70]”, the S/N rises from 6.6 to 8.4.

First: GPTQSHYGQCGGPGYPGYIRCSGTTCQWIHSRTSQCLPGAS (disulfide (positions not given here)) [EpCAM CBD 89]
Second: GPTQSHYGQCGGPGYQGFIVCSGTTCQYRQPSESQCLPGAS (disulfide (positions not given here)) [EpCAM CBD 2]
The S/N of the first is lower: 5.8 for the first, 24.7 for the second.

Compared with “GPTQSHYGQCGGPGYTGVIKCSGTTCQFVNLPRSQCLPGAS (disulfide (positions not given here)) [EpCAM CBD 51]”, “GPTQSHYGQCGGPGYVGSIMCSGTTCQFQYIPTSQCLPGAS (disulfide (positions not given here)) [EpCAM CBD 23]” is higher in S/N: 9.8 for the first, 16.9 for the second.

Compared with “GPTQSHYGQCGGPGYYGAIVCSGTTCQHTFITHSQCLPGAS (disulfide (positions not given here)) [EpCAM CBD 57]”, “GPTQSHYGQCGGQGYHGAILCSGTTCQYTMISRSQCLPGAS (disulfide (positions not given here)) [EpCAM CBD 5]” is higher in S/N: 9.3 for the first, 22.8 for the second.

Going from “GPTQSHYGQCGGQGYHGMIRCSGTTCQWVPMVRSQCLPGAS (disulfide (positions not given here)) [EpCAM CBD 39]” to “GPTQSHYGQCGGQGYHGYIMCSGTTCQYYTPYTSQCLPGAS (disulfide (positions not given here)) [EpCAM CBD 68]”, the S/N falls from 12.6 to 8.5.

Compared with “GPTQSHYGQCGGQGYIGAIMCSGTTCQMRSLPASQCLPGAS (disulfide (positions not given here)) [EpCAM CBD 20]”, “GPTQSHYGQCGGQGYYGAIMCSGTTCQWEPARKSQCLPGAS (disulfide (positions not given here)) [EpCAM CBD 31]” is lower in S/N: 17.5 for the first, 15.3 for the second.

First: GPTQSHYGQCGGRGYFGAIICSGTTCQYVQKHMSQCLPGAS (disulfide (positions not given here)) [EpCAM CBD 9]
Second: GPTQSHYGQCGGRGYFGALRCSGTTCQYVTMIESQCLPGAS (disulfide (positions not given here)) [EpCAM CBD 80]
The S/N of the first is higher: 20.9 for the first, 7.3 for the second.

Going from “GPTQSHYGQCGGRGYKGAIVCSGTTCQVAQMYQSQCLPGAS (disulfide (positions not given here)) [EpCAM CBD 86]” to “GPTQSHYGQCGGRGYPGAMVCSGTTCQWHQPLRSQCLPGAS (disulfide (positions not given here)) [EpCAM CBD 60]”, the S/N rises from 6.6 to 8.9.

Compared with “GPTQSHYGQCGGRGYPGAVICSGTTCQYHQATRSQCLPGAS (disulfide (positions not given here)) [EpCAM CBD 73]”, “GPTQSHYGQCGGRGYPGAVVCSGTTCQYAVVPHSQCLPGAS (disulfide (positions not given here)) [EpCAM CBD 14]” is higher in S/N: 7.8 for the first, 19.4 for the second.

Compared with “GPTQSHYGQCGGRGYPGFIRCSGTTCQFVQSVQSQCLPGAS (disulfide (positions not given here)) [EpCAM CBD 78]”, “GPTQSHYGQCGGRGYPGRMVCSGTTCQYVAPMISQCLPGAS (disulfide (positions not given here)) [EpCAM CBD 27]” is higher in S/N: 7.4 for the first, 16.6 for the second.

Going from “GPTQSHYGQCGGRGYVGAIACSGTTCQFTPPRSSQCLPGAS (disulfide (positions not given here)) [EpCAM CBD 87]” to “GPTQSHYGQCGGRGYVGALMCSGTTCQYIAKPVSQCLPGAS (disulfide (positions not given here)) [EpCAM CBD 4]”, the S/N rises from 6.1 to 23.5.

First: GPTQSHYGQCGGRGYVGGIKCSGTTCQOVHAHPSQCLPGAS (disulfide) [EpCAM CBD 72]
Second: GPTQSHYGQCGGRGYWGMAICSGTTCQAQTRMISQCLPGAS (disulfide (positions not given here)) [EpCAM CBD 42]
The S/N of the first is lower: 8.0 for the first, 11.4 for the second.

Going from “GPTQSHYGQCGGSGYHGAILCSGTTCQYVEVSRSQCLPGAS (disulfide (positions not given here)) [EpCAM CBD 10]” to “GPTQSHYGQCGGSGYKGAIKCSGTTCQLVTVHVSQCLPGAS (disulfide (positions not given here)) [EpCAM CBD 46]”, the S/N falls from 20.7 to 10.7.

First: GPTQSHYGQCGGSGYKGVIVCSGTTCQYKIMTMSQCLPGAS (disulfide (positions not given here)) [EpCAM CBD 44]
Second: GPTQSHYGQCGGSGYPGAVVCSGTTCQWRQVPRSQCLPGAS (disulfide (positions not given here)) [EpCAM CBD 18]
The S/N of the first is lower: 11.1 for the first, 18.3 for the second.

Going from “GPTQSHYGQCGGSGYPGHFLCSGTTCQTPRSWSSQCLPGAS (disulfide (positions not given here)) [EpCAM CBD 82]” to “GPTQSHYGQCGGSGYWGAIACSGTTCQMVKLPYSQCLPGAS (disulfide (positions not given here)) [EpCAM CBD 69]”, the S/N rises from 6.9 to 8.5.

Going from “GPTQSHYGQCGGSGYYGAIMCSGTTCQYMRAMQSQCLPGAS (disulfide (positions not given here)) [EpCAM CBD 79]” to “GPTQSHYGQCGGSGYYGVIVCSGTTCQYVNRKPSQCLPGAS (disulfide (positions not given here)) [EpCAM CBD 36]”, the S/N rises from 7.4 to 13.1.

Compared with “GPTQSHYGQCGGSGYYGYIVCSGTTCQFKPSGRSQCLPGAS (disulfide (positions not given here)) [EpCAM CBD 81]”, “GPTQSHYGQCGGTGYFGMMRCSGTTCQHVFLERSQCLPGAS (disulfide (positions not given here)) [EpCAM CBD 53]” is higher in S/N: 7.0 for the first, 9.5 for the second.

Compared with “GPTQSHYGQCGGTGYHGVMLCSGTTCQLWAHPLSQCLPGAS (disulfide (positions not given here)) [EpCAM CBD 11]”, “GPTQSHYGQCGGTGYPGAMVCSGTTCQLFELXVSQCLPGAS (disulfide) [EpCAM CBD 74]” is lower in S/N: 20.6 for the first, 7.8 for the second.

Going from “GPTQSHYGQCGGTGYVGAHVCSGTTCQFVYRDFSQCLPGAS (disulfide (positions not given here)) [EpCAM CBD 48]” to “GPTQSHYGQCGGTGYVGMFKCSGTTCQYVYSSASQCLPGAS (disulfide (positions not given here)) [EpCAM CBD 67]”, the S/N falls from 10.5 to 8.5.

First: GPTQSHYGQCGGTGYVGYTRCSGTTCQTVPAVMSQCLPGAS (disulfide (positions not given here)) [EpCAM CBD 16]
Second: GPTQSHYGQCGGVGYHGAIQCSGTTCQEVKMTRSQCLPGAS (disulfide (positions not given here)) [EpCAM CBD 3]
The S/N of the first is lower: 18.9 for the first, 23.5 for the second.

Going from “GPTQSHYGQCGGVGYHGMIVCSGTTCQWKPSVYSQCLPDAS (disulfide (positions not given here)) [EpCAM CBD 76]” to “GPTQSHYGQCGGVGYVGSILCSGTTCQFTKVRTSQCLPGAS (disulfide (positions not given here)) [EpCAM CBD 50]”, the S/N rises from 7.6 to 9.9.

Compared with “GPTQSHYGQCGGWGYQGWAICSGTTCQAQLSHKSQCLPGAS (disulfide (positions not given here)) [EpCAM CBD 83]”, “GPTQSHYGQCGGXGYNGXIVCSGTTCQYXRKSKSQCLPGAS (disulfide) [EpCAM CBD 61]” is higher in S/N: 6.8 for the first, 8.8 for the second.

First: GPTQSHYGQCGGYGYPGLACSGTTCQYTYYMRSQCLPGAS (disulfide (positions not given here)) [EpCAM CBD 71]
Second: GPTQSHYGQCGGYGYQGMMMCSGTTCQYVRHKVSQCLPGAS (disulfide (positions not given here)) [EpCAM CBD 30]
The S/N of the first is lower: 8.3 for the first, 15.6 for the second.

“GPTQSHYGQCGGYVGAIMCSGTTCQFQHVKQSQCLPGAS (disulfide (positions not given here)) [EpCAM CBD 38]” showed a S/N of 12.9.
